Where two headings read alike, the source gives them in different places.
Columns and labels:
Format in all cases: cell-based
[1] = system: D. immitis L4 larvae; test: Dirofilaria immitis, L4 Stage (DiL4) In Vitro Assay; settings: for minimal effective concentration: Dirofilaria immitis, 72 h, read-out: DiL4 MED, Minimum Effective Dose, D. immitis L4 larvae motility, in vitro; for DiMf/DiL4: larval stage selectivity, ratio of DiMf MED to DiL4 MED
[2] = system: third stage larvae of Haemonchus contortus; test: Haemonchus contortus, Larvae Stage 3 (HcL3) In Vitro Assay; settings: Haemonchus contortus, 96 h
[3] = system: microfilariae of Dirofilaria immitis; test: Dirofilaria immitis, Microfilaria (DiMf) In Vitro Assay; settings: Dirofilaria immitis, 72 h, read-out: DiMf MED, Minimum Effective Dose, D. immitis microfilariae motility, in vitro
[4] = read-out: HcL3 MED, Minimum Effective Dose, H. contortus third stage larvae, approximately 96 hours
[5] = read-out: HcL3 MED (symbol after Ex#), approximately 96 hours incubation, multiple-resistant field isolate
[6] = read-out: HcL3 MED, approximately 96 hours incubation, multiple-resistant field isolate

| SMILES | minimal effective concentration [1] | DiMf/DiL4 [1] | minimal effective concentration [2, 4] | minimal effective concentration [3] | minimal effective concentration [2, 5] | minimal effective concentration [2, 6] |
| --- | --- | --- | --- | --- | --- | --- |
| CC(C)C[C@H]1C(=O)O[C@H](Cc2ccc(C(O)c3coc4ccccc34)cc2)C(=O)N(C)[C@@H](CC(C)C)C(=O)O[C@H](C)C(=O)N(C)[C@@H](CC(C)C)C(=O)O[C@H](Cc2ccccc2)C(=O)N(C)[C@@H](CC(C)C)C(=O)O[C@H](C)C(=O)N1C (stereo partly drawn) [Example 4-21, (3S,6R,9S,12R,15S,18R,21S,24R)-6-(4-(benzofuran-3-yl(hydroxy)methyl)benzyl)-18-benzyl-3,9,15,21-tetraisobutyl-4,10,12,16,22,24-hexamethyl-1,7,13,19-tetraoxa-4,10,16,22-tetraazacyclotetracosan-2,5,8,11,14,17,20,23-octaone] | 0.001 µM | 50 | > 10 µM | 0.05 µM | – | – |
| CC(C)C[C@H]1C(=O)O[C@H](Cc2ccc(Cc3ncco3)cc2)C(=O)N(C)[C@@H](CC(C)C)C(=O)O[C@H](C)C(=O)N(C)[C@@H](CC(C)C)C(=O)O[C@H](Cc2ccccc2)C(=O)N(C)[C@@H](CC(C)C)C(=O)O[C@H](C)C(=O)N1C [Example 4-30, (3S,6R,9S,12R,15S,18R,21S,24R)-6-benzyl-3,9,15,21-tetraisobutyl-4,10,12,16,22,24-hexamethyl-18-(4-(oxazol-2-ylmethyl)benzyl)-1,7,13,19-tetraoxa-4,10,16,22-tetraazacyclotetracosan-2,5,8,11,14,17,20,23-octaone] | 0.001 µM | 1 | 1 µM | 0.001 µM | < 1 µM | ≤ 1 µM |
| CC(C)C[C@H]1C(=O)O[C@H](Cc2ccc(Cc3ccco3)cc2)C(=O)N(C)[C@@H](CC(C)C)C(=O)O[C@H](C)C(=O)N(C)[C@@H](CC(C)C)C(=O)O[C@H](Cc2ccccc2)C(=O)N(C)[C@@H](CC(C)C)C(=O)O[C@H](C)C(=O)N1C [Example 4-32, (3S,6R,9S,12R,15S,18R,21S,24R)-6-benzyl-18-(4-(furan-2-ylmethyl)benzyl)-3,9,15,21-tetraisobutyl-4,10,12,16,22,24-hexamethyl-1,7,13,19-tetraoxa-4,10,16,22-tetraazacyclotetracosan-2,5,8,11,14,17,20,23-octaone] | 0.001 µM | 3 | 1 µM | 0.003 µM | < 1 µM | ≤ 1 µM |
| Cc1ccsc1Cc1ccc(C[C@H]2OC(=O)[C@H](CC(C)C)N(C)C(=O)[C@@H](C)OC(=O)[C@H](CC(C)C)N(C)C(=O)[C@@H](Cc3ccccc3)OC(=O)[C@H](CC(C)C)N(C)C(=O)[C@@H](C)OC(=O)[C@H](CC(C)C)N(C)C2=O)cc1 [Example 4-34, (3S,6R,9S,12R,15S,18R,21S,24R)-6-benzyl-3,9,15,21-tetraisobutyl-4,10,12,16,22,24-hexamethyl-18-(4-((3-methylthiophen-2-yl)methyl)benzyl)-1,7,13,19-tetraoxa-4,10,16,22-tetraazacyclotetracosan-2,5,8,11,14,17,20,23-octaone] | 0.0003 µM | 33.3 | 0.5 µM | 0.01 µM | < 1 µM | ≤ 1 µM |
| CC(C)C[C@H]1C(=O)O[C@H](Cc2ccc(Cc3occc3C#N)cc2)C(=O)N(C)[C@@H](CC(C)C)C(=O)O[C@H](C)C(=O)N(C)[C@@H](CC(C)C)C(=O)O[C@H](Cc2ccccc2)C(=O)N(C)[C@@H](CC(C)C)C(=O)O[C@H](C)C(=O)N1C [Example 4-40, 2-(4-(((2R,5S,8R,11S,14R,17S,20R,23S)-14-benzyl-5,11,17,23-tetraisobutyl-4,8,10,16,20,22-hexamethyl-3,6,9,12,15,18,21,24-octaoxo-1,7,13,19-tetraoxa-4,10,16,22-tetraazacyclotetracosan-2-yl)methyl)benzyl)furan-3-carbonitrile] | 0.0002 µM | 2.5 | 0.5 µM | 0.0005 µM | < 1 µM | ≤ 1 µM |
| CC(C)C[C@H]1C(=O)O[C@H](Cc2ccc(Cc3ccsc3)cc2)C(=O)N(C)[C@@H](CC(C)C)C(=O)O[C@H](C)C(=O)N(C)[C@@H](CC(C)C)C(=O)O[C@H](Cc2ccccc2)C(=O)N(C)[C@@H](CC(C)C)C(=O)O[C@H](C)C(=O)N1C [Example 4-50, (3S,6R,9S,12R,15S,18R,21S,24R)-6-benzyl-3,9,15,21-tetraisobutyl-4,10,12,16,22,24-hexamethyl-18-(4-(thiophen-3-ylmethyl)benzyl)-1,7,13,19-tetraoxa-4,10,16,22-tetraazacyclotetracosan-2,5,8,11,14,17,20,23-octaone] | 0.001 µM | 10 | 1.8 µM | 0.01 µM | 1 to 3.3 µM | – |
| CC(C)C[C@H]1C(=O)O[C@H](Cc2ccc(Cc3ccnn3C)cc2)C(=O)N(C)[C@@H](CC(C)C)C(=O)O[C@H](C)C(=O)N(C)[C@@H](CC(C)C)C(=O)O[C@H](Cc2ccccc2)C(=O)N(C)[C@@H](CC(C)C)C(=O)O[C@H](C)C(=O)N1C [Example 4-63, (3S,6R,9S,12R,15S,18R,21S,24R)-6-benzyl-3,9,15,21-tetraisobutyl-4,10,12,16,22,24-hexamethyl-18-(4-((1-methyl-1H-pyrazol-5-yl)methyl)benzyl)-1,7,13,19-tetraoxa-4,10,16,22-tetraazacyclotetracosan-2,5,8,11,14,17,20,23-octaone] | 0.001 µM | 1 | 1 µM | 0.001 µM | < 1 µM | ≤ 1 µM |
| CC(C)C[C@H]1C(=O)O[C@H](Cc2ccc(Cc3sccc3Cl)cc2)C(=O)N(C)[C@@H](CC(C)C)C(=O)O[C@H](C)C(=O)N(C)[C@@H](CC(C)C)C(=O)O[C@H](Cc2ccccc2)C(=O)N(C)[C@@H](CC(C)C)C(=O)O[C@H](C)C(=O)N1C [Example 4-75, (3S,6R,9S,12R,15S,18R,21S,24R)-6-benzyl-18-(4-((3-chlorothiophen-2-yl)methyl)benzyl)-3,9,15,21-tetraisobutyl-4,10,12,16,22,24-hexamethyl-1,7,13,19-tetraoxa-4,10,16,22-tetraazacyclotetracosan-2,5,8,11,14,17,20,23-octaone] | 0.0005 µM | 20 | 1 µM | 0.01 µM | < 1 µM | ≤ 1 µM |
| COc1ccsc1Cc1ccc(C[C@H]2OC(=O)[C@H](CC(C)C)N(C)C(=O)[C@@H](C)OC(=O)[C@H](CC(C)C)N(C)C(=O)[C@@H](Cc3ccccc3)OC(=O)[C@H](CC(C)C)N(C)C(=O)[C@@H](C)OC(=O)[C@H](CC(C)C)N(C)C2=O)cc1 [Example 4-105, (3S,6R,9S,12R,15S,18R,21S,24R)-6-benzyl-3,9,15,21-tetraisobutyl-18-(4-((3-methoxythiophen-2-yl)methyl)benzyl)-4,10,12,16,22,24-hexamethyl-1,7,13,19-tetraoxa-4,10,16,22-tetraazacyclotetracosan-2,5,8,11,14,17,20,23-octaone] | 0.0002 µM | 25 | 0.3 µM | 0.005 µM | < 1 µM | ≤ 1 µM |
| CC(C)C[C@H]1C(=O)O[C@H](Cc2ccc(Cc3scnc3Cl)cc2)C(=O)N(C)[C@@H](CC(C)C)C(=O)O[C@H](C)C(=O)N(C)[C@@H](CC(C)C)C(=O)O[C@H](Cc2ccccc2)C(=O)N(C)[C@@H](CC(C)C)C(=O)O[C@H](C)C(=O)N1C [Example 4-107, (3S,6R,9S,12R,15S,18R,21S,24R)-6-benzyl-18-(4-((4-chlorothiazol-5-yl)methyl)benzyl)-3,9,15,21-tetraisobutyl-4,10,12,16,22,24-hexamethyl-1,7,13,19-tetraoxa-4,10,16,22-tetraazacyclotetracosan-2,5,8,11,14,17,20,23-octaone] | 0.0002 µM | 15 | 0.3 µM | 0.003 µM | < 1 µM | ≤ 1 µM |
| Cc1noc(C)c1Cc1ccc(C[C@H]2OC(=O)[C@H](CC(C)C)N(C)C(=O)[C@@H](C)OC(=O)[C@H](CC(C)C)N(C)C(=O)[C@@H](Cc3ccccc3)OC(=O)[C@H](CC(C)C)N(C)C(=O)[C@@H](C)OC(=O)[C@H](CC(C)C)N(C)C2=O)cc1 [Example 4-109, (3S,6R,9S,12R,15S,18R,21S,24R)-6-benzyl-18-(4-((3,5-dimethylisoxazol-4-yl)methyl)benzyl)-3,9,15,21-tetraisobutyl-4,10,12,16,22,24-hexamethyl-1,7,13,19-tetraoxa-4,10,16,22-tetraazacyclotetracosan-2,5,8,11,14,17,20,23-octaone] | 0.0004 µM | 2.5 | 1 µM | 0.001 µM | < 1 µM | ≤ 1 µM |

Reference: US11771738B2 (Zoetis Services LLC, priority 2018, dated 2023)
